According to US20050170966A1, “Surfactants and surfactant compositions” (priority 2002, published 2005):

Key:
Type in all cases: in vivo
[1] = test system: Agropyron repens (couch grass); assay: Adjuvants for Glyphosate, test plots, visual score
Protocol: (§1) In this Example the effect of compounds of the invention as adjuvants for Glyphosate as a herbicide against the species Agropyron repens (couch grass) and Abutilon theophrasti (velvetleaf) using FAE1 as a control adjuvant was tested. Test plots were treated by spraying (spray volume 200 l.ha^−1) at varying doses of glyphosate; 180 and 360 g(a.e.).ha^−1 for A. repens and 250 and 500 g(active).ha^−1 for A. theophrasti and ratios of glyphosate to adjuvant (8:1,4:1 and 2:1 by weight). The effect of the herbicide formulations was assessed by visual comparison with untreated control blocks 6, 13 and 19 days after treatment (DAT), scoring as percentages with 0=no effect and 100=complete kill. The results are set out in Table 2 below

[2] = test system: Abutilon theophrasti (velvetleaf); assay: Adjuvants for Glyphosate, test plots, visual score
Protocol: as §1

pea = assay: Field trial, lower glyphosate rate, varying adjuvant rate; settings: 14 DAT
Protocol: (§2) In this Example, adjuvants of the invention (SE2), plus TAE1 as control, were tested in field trials in formulations including glyphosate (isopropylamine salt) as a herbicide on flax, pea, Savoy cabbage (Sav C) and Italian ryegrass (It R) as target crops. The application rate was 1080 g(a.e).ha^−1, with adjuvant at an application rate of 405 g.ha^−1 (75% of the normal application rate for adjuvants in such formulations of 540 g.ha^−1). The effectiveness of the formulations was by visual assessment of Growth Reduction (Gr Red) and Chlorosis/Necrosis (Chlor) 6 DAT with the values being reported in % (related to an untreated control=0% effect). Further field trial runs were carried out similar to Example AE4 on pea and Savoy cabbage as target crops at a lower application rate of glyphosate (570 g(a.e.).ha^−1) and using varying application rates for the adjuvant (135, 270 and 405 g.ha^−1) with the formulation components being mixed in the spray tank.

Savoy cabbage = assay: as above; settings: Sav C, 14 DAT
Protocol: as §2

[3] = glyphosate 570 g(a.e.).ha^-1, adjuvant 135 g/ha
[4] = glyphosate 570 g(a.e.).ha^-1, adjuvant 270 g/ha
[5] = glyphosate 570 g(a.e.).ha^-1, adjuvant 405 g/ha

1-[Bis-(2-hydroxyethyl)-amino]-2-hydroxypropane-3-(Alc1 15-ethoxylate) [SE2]
visual herbicide effect score ([1]; glyphosate 180 g.ha^-1, ratio 2:1, 6 DAT): 17.9% | visual herbicide effect score ([1]; glyphosate 180 g.ha^-1, ratio 2:1, 13 DAT): 46.4% | visual herbicide effect score ([1]; glyphosate 180 g.ha^-1, ratio 2:1, 19 DAT): 82.1% | visual herbicide effect score ([1]; glyphosate 180 g.ha^-1, ratio 4:1, 6 DAT): 17.9% | visual herbicide effect score ([1]; glyphosate 180 g.ha^-1, ratio 4:1, 13 DAT): 39.3% | visual herbicide effect score ([1]; glyphosate 180 g.ha^-1, ratio 4:1, 19 DAT): 60% | visual herbicide effect score ([1]; glyphosate 180 g.ha^-1, ratio 8:1, 6 DAT): 25% | visual herbicide effect score ([1]; glyphosate 180 g.ha^-1, ratio 8:1, 13 DAT): 32.1% | visual herbicide effect score ([1]; glyphosate 180 g.ha^-1, ratio 8:1, 19 DAT): 50% | visual herbicide effect score ([1]; glyphosate 360 g.ha^-1, ratio 2:1, 6 DAT): 32.1% | visual herbicide effect score ([1]; glyphosate 360 g.ha^-1, ratio 2:1, 13 DAT): 60.7% | visual herbicide effect score ([1]; glyphosate 360 g.ha^-1, ratio 2:1, 19 DAT): 100% | visual herbicide effect score ([1]; glyphosate 360 g.ha^-1, ratio 4:1, 6 DAT): 25% | visual herbicide effect score ([1]; glyphosate 360 g.ha^-1, ratio 4:1, 13 DAT): 50% | visual herbicide effect score ([1]; glyphosate 360 g.ha^-1, ratio 4:1, 19 DAT): 92.9% | visual herbicide effect score ([1]; glyphosate 360 g.ha^-1, ratio 8:1, 6 DAT): 25% | visual herbicide effect score ([1]; glyphosate 360 g.ha^-1, ratio 8:1, 13 DAT): 46.4% | visual herbicide effect score ([1]; glyphosate 360 g.ha^-1, ratio 8:1, 19 DAT): 78.6% | visual herbicide effect score ([2]; glyphosate 250 g.ha^-1, ratio 2:1, 6 DAT): 25% | visual herbicide effect score ([2]; glyphosate 250 g.ha^-1, ratio 2:1, 13 DAT): 32.1% | visual herbicide effect score ([2]; glyphosate 250 g.ha^-1, ratio 2:1, 19 DAT): 42.9% | visual herbicide effect score ([2]; glyphosate 250 g.ha^-1, ratio 4:1, 6 DAT): 17.9% | visual herbicide effect score ([2]; glyphosate 250 g.ha^-1, ratio 4:1, 13 DAT): 28.6% | visual herbicide effect score ([2]; glyphosate 250 g.ha^-1, ratio 4:1, 19 DAT): 35.7% | visual herbicide effect score ([2]; glyphosate 250 g.ha^-1, ratio 8:1, 6 DAT): 21.4% | visual herbicide effect score ([2]; glyphosate 250 g.ha^-1, ratio 8:1, 13 DAT): 28.6% | visual herbicide effect score ([2]; glyphosate 250 g.ha^-1, ratio 8:1, 19 DAT): 42.9% | visual herbicide effect score ([2]; glyphosate 500 g.ha^-1, ratio 2:1, 6 DAT): 28.6% | visual herbicide effect score ([2]; glyphosate 500 g.ha^-1, ratio 4:1, 6 DAT): 28.6% | visual herbicide effect score ([2]; glyphosate 500 g.ha^-1, ratio 8:1, 6 DAT): 25% | visual herbicide effect score ([2]; glyphosate 500 g.ha^-1, ratio 8:1, 13 DAT): 50% | visual herbicide effect score ([2]; glyphosate 500 g.ha^-1, ratio 8:1, 19 DAT): 53.6% | % necrosis (pea; [3]): 70% | % necrosis (pea; [4]): 90% | % necrosis (pea; [5]): 95% | % necrosis (Savoy cabbage; [3]): 40% | % necrosis (Savoy cabbage; [4]): 40% | % necrosis (Savoy cabbage; [5]): 60%
